We go through twelve compounds from patent publication US11311544B2, “Treatment of congenital adrenal hyperplasia” (Neurocrine Biosciences, Inc., priority 2014, dated 2022).

Where two headings read alike, the source gives them in different places. Bounds are passed on as bounds.

What is called Ki is a measure of affinity in units of concentration, obtained from inhibition or displacement.

One assay concerns the target T1, CRF1 receptor (Homo sapiens, UniProt P34998).
T1 sequence (P34998 24-415): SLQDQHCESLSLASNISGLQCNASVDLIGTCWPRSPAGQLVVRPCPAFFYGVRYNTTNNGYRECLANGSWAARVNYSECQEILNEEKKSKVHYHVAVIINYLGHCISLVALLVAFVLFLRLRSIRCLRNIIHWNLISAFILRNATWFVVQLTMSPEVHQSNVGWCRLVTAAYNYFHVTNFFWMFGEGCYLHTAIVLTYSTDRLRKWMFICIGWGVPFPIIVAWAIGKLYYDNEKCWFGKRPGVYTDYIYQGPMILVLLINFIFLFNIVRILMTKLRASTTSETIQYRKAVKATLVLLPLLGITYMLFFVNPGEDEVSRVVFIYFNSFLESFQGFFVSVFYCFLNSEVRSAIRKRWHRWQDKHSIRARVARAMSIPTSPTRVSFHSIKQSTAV
Conditions: as reported in Fleck et al., cited from earlier work; for Ki: Ki=k−1/k1, read-out: Kinetic Ki; for Dissociation t1/2: t1/2=0.693/k−1.

Assay [1] has as its system HPA axis response (ACTH) produced by metyrapone. The experiment in a line: Pharmacodynamic effect of single oral doses on HPA axis response produced by metyrapone in humans. Format: in vivo. Conditions: human, metyrapone 0.04 g/kg.
The subject of assay [2] is plasma ACTH in adrenalectomized (ADX) rats. The experiment in a line: Lowering of plasma ACTH in adrenalectomized rats. Conditions: 30 mg/kg single oral dose, FIG. 2. Format: in vivo, rat. The source says: Adrenalectomy eliminates circulating corticosterone (the primary glucocorticoid) in rats and removes the negative feedback control of the HPA axis at both the hypothalamic and pituitary (corticotroph cells) levels and thus chronically elevates plasma ACTH (see, e.g., Mims et al., J. Natl. Med. Assoc. 69:145-47 (1977)). […] These findings were recapitulated with the small molecule NBI-77860 (Compound I). In adrenalectomized rats, Compound I has potent capability for lowering ACTH.
These findings were recapitulated with the small molecule NBI-77860. […] The duration of efficacy correlated with peak plasma concentrations, with a time course exceeding drug plasma exposure.
Fleck et al. also report the effects of CRF1 receptor antagonists differentiated by their dissociation half-life on plasma ACTH levels in adrenalectomized rats; namely, NBI 30775, NBI 34041 and NBI 35965. […] After a longer duration, a clear difference emerged between NBI 35965 and the other two ligands. The ACTH level returned to the vehicle level by 2 hr for NBI 35965 (FIG. 3C), whereas the response was sustained for 4-6 hr for NBI 30775 and NBI 34041 (FIGS. 3A and 3B).

The subject of assay [3] is 17-OHP and ACTH levels (HPA axis hormones). The assay can be described thus: Phase 1 single-dose clinical study in adult females with classical congenital adrenal hyperplasia. Format: in vivo, human. The note with it: adult female classical CAH patients, single bedtime doses. The procedure:
The study was a single-blind, placebo-controlled, single center, fixed-sequence, single-dose clinical trial in adult female classical CAH patients.
The subjects' usual morning dose of concurrent steroidal treatment was delayed until after the 16-hour postdose blood samples were collected (i.e., until approximately 1400 h).
The PD endpoints for this study included the HPA axis biomarkers of interest in this patient population; namely, 17-hydroxyprogesterone (17-OHP; as the primary PD endpoint), adrenocorticotropic hormone (ACTH), androstenedione, testosterone, and serum cortisol levels. The initial analysis of PD variables was an examination of the grouped subject data for each biomarker, expressed as a mean percent change from predose levels for the two active dosing conditions relative to the placebo condition.
This responder analysis yielded a sizeable responder rate of 50% in the study (none of these subjects were responders during the initial placebo treatment period).

The subject of assay [4] is plasma ACTH in adrenalectomized (ADX) rats. Conditions: Fleck et al., cited from earlier work; for effect on plasma ACTH, acute: highest dose 10 mg/kg, 1 hr post-injection, FIG. 3A-C.
Setting [5] is: Table 2 rate constant used for t1/2.

`CCCCN(CC)c1nc(C)nc2c1c(C)c(C)n2-c1c(C)cc(C)cc1C` [antalarmin, N-butyl-N-ethyl-2,5,6-trimethyl-7-(2,4,6-trimethylphenyl)pyrrolo[3,2-e]pyrimidin-4-amine]: on CRF1 receptor, the Ki is 3.9 nM and the “Dissociation t1/2” value is on record as 53 min. Besides, the “Rate constant (association k1 or dissociation k−1)” value (from here on “Rate constant”) at CRF1 receptor (setting [5]) is 0.013 ± 0.002 min⁻¹. In addition, the “Rate constant” value at CRF1 receptor (association rate constant) is reported as 3.4 ± 0.6 10^6M^−1min^−1.

Regarding `Cc1nnc2n1-c1ccc(Cl)cc1C(c1ccccc1)=NC2` [alprazolam], the “ACTH AUC (30 min to 4 h) compared to placebo” value in assay [1] (single dose alprazolam 0.75 mg) is on record as “significant reduction”.

For `CC[C@H](Nc1cc(C)nc2c(-c3ccc(OC)cc3C)c(C)nn12)c1nc(C)no1` [NBI-77860, 2,5-dimethyl-3-[2-methyl-4-(methyloxy)phenyl]-N-[(1S)-1-(3-methyl-1,2,4-oxadiazol-5-yl)propyl]pyrazolo[1,5-a]pyrimidin-7-amine], the “duration of significant lowering of plasma ACTH levels” value in assay [2] is on record as “up to 5 hours”. In addition, the “ACTH AUC (30 min to 4 h) compared to placebo” value is listed as “increase” in assay [1] (single oral dose 10 mg), “non-significant reduction” in assay [1] (single oral dose 50 mg) and “significant reduction” in assay [1] (single oral dose 400 mg). In addition, the entries for the “ACTH AUC (2 h to 4 h) compared with placebo” value in assay [1] (single oral dose 10 mg), in assay [1] (single oral dose 50 mg) and in assay [1] (single oral dose 400 mg) were “reduction was not seen”, “significant reduction” and “significant reduction”, respectively. For the same compound, the “effects on 17-OHP and ACTH, 300 mg dose compared with 600 mg dose” value in assay [3] is “nearly identical effects”.

`CCCC(CCC)N1CCn2nc(-c3ccc(Cl)cc3Cl)c3nc(C)cc1c32` [NBI-34041, 3-(2,4-dichlorophenyl)-9-(heptan-4-yl)-6-methyl-1,2,5,9-tetraazatricyclo[6.3.1.0^4,12] dodeca-2,4(12),5,7-tetraene]: the “effect on plasma ACTH, acute” value in assay [4] is on record as “reduced ACTH acutely”. At CRF1 receptor, the inhibition constant Ki was 1.7 nM and the “Dissociation t1/2” value is on record as 53 min. Moreover, the “Rate constant” value on CRF1 receptor (setting [5]) is 0.013 ± 0.002 min⁻¹. Also, the “Rate constant” value on CRF1 receptor (association rate constant) is given as 8.3 ± 2.0 10^6M^−1min^−1.

Turning to `CCC(CC)Nc1cc(C)nc2c(-c3ccc(OC)cc3C)c(C)nn12` [DMP904], at CRF1 receptor, the Ki is 0.38 nM. Besides, the “Rate constant” value on CRF1 receptor (setting [5]) was 0.0072 ± 0.002 min⁻¹; at CRF1 receptor (association rate constant), 18 ± 1 10^6M^−1min^−1.

On to `CCC(CC)Nc1c2c(nc3c(-c4ccc(OC)cc4Cl)c(C)nn13)CCC2` [ONO-2333Ms, 10-(2-chloro-4-methoxyphenyl)-11-methyl-N-(pentan-3-yl)-1,8,12-triazatricyclo[7.3.0.0^3,7] dodeca-2,7,9,11-tetraen-2-amine], for which, at CRF1 receptor, the inhibition constant (Ki) was 15 nM and the “Dissociation t1/2” value was 17 min. Moreover, the “Rate constant” value on CRF1 receptor (setting [5]) was 0.063 ± 0.029 min⁻¹. The “Rate constant” value at CRF1 receptor (association rate constant) is recorded as 4.4 ± 2.2 10^6M^−1min^−1.

`CC[C@H]1Cn2nc(-c3ccc(Cl)cc3Cl)c3nc(C)cc(c32)N1CC1CC1.CS(=O)(=O)O` [NBI-35965]: the “time by which ACTH level returned to the vehicle level” value in assay [4] (10 mg/kg) is no more than 2 h. For the same compound, the “effect on plasma ACTH, acute” value in assay [4] is reported as “reduced ACTH acutely”. Besides, on CRF1 receptor, the inhibition constant (Ki) was 2.3 nM and the “Dissociation t1/2” value is 16 min. Also, the “Rate constant” value on CRF1 receptor (setting [5]) was 0.048 ± 0.005 min⁻¹. Moreover, the “Rate constant” value at CRF1 receptor (association rate constant) is 20 ± 2 10^6M^−1min^−1.

Regarding `COCC(COC)Nc1nc(C)nc2c(-c3ccc(Cl)cc3Cl)c(C)nn12` [DMP696], the Ki at CRF1 receptor is 9.5 nM. Further, the “Rate constant” value was 0.095 ± 0.02 min⁻¹ on CRF1 receptor (setting [5]) and 7.7 ± 2 10^6M^−1min^−1 at CRF1 receptor (association rate constant). Moreover, at CRF1 receptor, the “Dissociation t1/2” value is 7.3 min.

Take `CCC(CC)Oc1cc(C)nc(Oc2c(C)cc(C)cc2C)c1C` [CP-316,311, 3,6-dimethyl-4-(pentan-3-yloxy)-2-(2,4,6-trimethylphenoxy) pyridine]: on CRF1 receptor, the inhibition constant Ki was 12 nM and the “Dissociation t1/2” value is reported as 4.1 min. The “Rate constant” value on CRF1 receptor (setting [5]) was 0.17 ± 0.04 min⁻¹. Further, the “Rate constant” value on CRF1 receptor (association rate constant) is given as 13 ± 2 10^6M^−1min^−1.

For the compound `CC[C@@H](C)Nc1nc(C)nc2c(-c3ccc(OC)nc3C)c(C)nn12` [pexacerfont, N-[(2R)-butan-2-yl]-8-(6-methoxy-2-methylpyridin-3-yl)-2,7-dimethylpyrazolo[1,5-a][1,3,5]triazin-4-amine], the “Rate constant” value on CRF1 receptor (setting [5]) was 0.049 ± 0.001 min⁻¹; on CRF1 receptor (association rate constant), 2.6 ± 0.1 10^6M^−1min^−1. The “Dissociation t1/2” value on CRF1 receptor is 14 min.

On to `CCCN(CC1CC1)c1nc(C)nc(Nc2c(Cl)cc(Cl)cc2Cl)c1Cl` [NBI-27914], for which, at CRF1 receptor, the inhibition constant (Ki) was 25 nM and the “Dissociation t1/2” value is on record as 2.6 min. At CRF1 receptor (setting [5]), the “Rate constant” value was 0.27 ± 0.07 min⁻¹. Moreover, on CRF1 receptor (association rate constant), the “Rate constant” value is 9.4 ± 3 10^6M^−1min^−1.

In the case of `CCCN(CCC)c1cc(C)nc2c(-c3cnc(N(C)C)cc3C)c(C)nn12` [NBI-30775, 5-[7-(dipropylamino)-2,5-dimethylpyrazolo[1,5-a]pyrimidin-3-yl]-N,N,4-trimethylpyridin-2-amine], the “effect on plasma ACTH, acute” value in assay [4] is given as “reduced ACTH acutely”. The “Rate constant” value is 0.0054 ± 0.0006 min⁻¹ at CRF1 receptor (setting [5]) and 14 ± 2.0 10^6M^−1min^−1 on CRF1 receptor (association rate constant).
